Laboratory results: US5026699A, “Use of 5,11-dihydro-6H-pyrido[2,3-b][1,4]-benzodiazepin-6-ones substituted in the 11-position for treating bradycardia and bradyarrhythmia in human and veterinary medicine” (Dr. Karl Thomae GmbH, priority 1988, dated 1991)

What was measured:
[1] = test system: rise in blood pressure caused by McN-A-343 (M1); assay: M1/M2 selectivity in the rat: reduction of rise in blood pressure caused by McN-A-343; assay type: in vivo; settings: iv, 5 min, male THOM rats, i.v., dose reducing rise in blood pressure (M1) caused by 0.3 mg/kg McN-A-343 by 50%, read-out: -log ED50, Blood pressure (converted)
Experimental: (§1) The dosage of the substances which reduced either the vagal bradycardia (M2) or the rise in blood pressure (M1) by 50% was determined graphically. For the results see Table II.

vagal bradycardia (M2) = assay: M1/M2 selectivity in the rat: reduction of bradycardia caused by vagus stimulation; assay type: in vivo; settings: iv, 5 min, male THOM rats, i.v., dose reducing vagal bradycardia (M2) by 50%, 5 minutes after injection, read-out: -log ED50, Heart (converted)
Experimental: as §1

[2] = test system: acetylcholine effect on bladder contraction; assay: Inhibition of the effect of acetylcholine on the bladder in guinea pigs; assay type: in vivo, guinea pig; settings: Cavia porcellus, 5 min; read-out: -log ED50, Bladder (converted)
Experimental: (§2) 5 minutes after the administration of the test substance, 10 microgram/kg of acetylcholine were simultaneously injected intravenously and intra-arterially into anesthetized guinea pigs. The heart rate was recorded directly by extracorporeal derivation of the ECG, the expiration resistance according to Konzett-Rossler and contraction of the exposed bladder. In order to determine the inhibition of the acetylcholine activity on the organs under investigation, dosage/activity curves were recorded and from them -log ED50 values were determined.

[3] = test system: acetylcholine effect on heart rate; assay: Inhibition of the effect of acetylcholine on heart rate in guinea pigs; assay type: in vivo, guinea pig; settings: Cavia porcellus, 5 min; read-out: -log ED50, Heart (converted)
Experimental: as §2

[4] = test system: secretion of saliva initiated by pilocarpine; assay: Salivation-inhibiting effect in the rat (pilocarpine-induced); assay type: in vivo; settings: iv, male THOM rats anesthetized with urethane, i.v., dose reducing volume of saliva by 50%, 2 mg/kg s.c. pilocarpine, read-out: -log ED50, Salivation inhibition (converted)
Experimental: The secretion of saliva was initiated by subcutaneous administration of 2 mg/kg of pilocarpine. The saliva was absorbed with blotting paper and the surface area covered was measured every 5 minutes by planimetry. The dosage of the substance which reduced the volume of saliva by 50% was determined graphically. For the results see Table II.

[5] = test system: acetylcholine effect on bronchi (expiration resistance); assay: Inhibition of the effect of acetylcholine on bronchi in guinea pigs; assay type: in vivo, guinea pig; settings: Cavia porcellus, 5 min; read-out: -log ED50, Bronchi (converted)
Experimental: as §2

[6] = target: muscarinic receptors, cerebral cortex; assay: Receptor binding test in vitro, 3H-NMS displacement, cerebral cortex homogenate; settings: rat cerebral cortex homogenate 1:3000; 0.3 nanomolar 3H-NMS; 30° C., 45 minutes; read-out: Receptor Binding Tests IC50, Cortex
Experimental: (§3) The organs were donated by male Sprague-Dawley rats weighing 180-220 g. After the heart and submandular gland and cerebral cortex had been removed, all other steps were carried out in ice cold Hepes HCl buffer (pH 7.4; 100 millimolar NaCl, 10 millimolar MgCl2). The whole heart was cut up with scissors. All the organs were then homogenized in a Potter apparatus.
(§4) For the binding test the homogenized organs were diluted as follows:
(§5) The homogenized organs were incubated at a certain concentration of the radioligand and at a series of concentrations of the non-radioactive test substances in an Eppendorf centrifuge tube at 30° C. Incubation lasted 45 minutes. The radioligand used was 0.3 nanomolar ^3 H--N- methylscopolamine (^3 H-NMS). Incubation was ended by the addition of ice cold buffer followed by vacuum filtration. The filters were rinsed with cold buffer and their radioactivity was determined. It represents the sum of specific and non-specific binding of ^3 H-NMS. The proportion of non-specific binding was defined as the radioactivity which was bound in the presence of 1 micromolar quinuclidinylbenzylate. Each measurement was taken four times. The IC50 values of the non-labelled test substances were determined graphically. They represent that concentration of test substance at which the specific binding of ^3 H-NMS to the muscarinic receptors in the various organs was inhibited by 50%.

[7] = target: T1, muscarinic receptors, submandibular gland (Rattus norvegicus, UniProt P08483); assay: Receptor binding test in vitro, 3H-NMS displacement, submandibular gland homogenate; settings: rat submandibular gland homogenate 1:400; 0.3 nanomolar 3H-NMS; 30° C., 45 minutes; read-out: Receptor Binding Tests IC50, Submandibular gland
T1 construct: All the organs were then homogenized in a Potter apparatus; from tissue; host or cells: submandibular gland of male Sprague-Dawley rats, homogenate
Experimental: as §3, §4, §5

[8] = target: T2, muscarinic receptors, heart (Rattus norvegicus, UniProt P10980); assay: Receptor binding test in vitro, 3H-NMS displacement, whole heart homogenate; settings: rat whole heart homogenate 1:400; 0.3 nanomolar 3H-NMS; 30° C., 45 minutes; read-out: Receptor Binding Tests IC50, Heart
T2 construct: The whole heart was cut up with scissors; from tissue; host or cells: whole heart of male Sprague-Dawley rats, homogenate
T2 sequence (P10980 1-466): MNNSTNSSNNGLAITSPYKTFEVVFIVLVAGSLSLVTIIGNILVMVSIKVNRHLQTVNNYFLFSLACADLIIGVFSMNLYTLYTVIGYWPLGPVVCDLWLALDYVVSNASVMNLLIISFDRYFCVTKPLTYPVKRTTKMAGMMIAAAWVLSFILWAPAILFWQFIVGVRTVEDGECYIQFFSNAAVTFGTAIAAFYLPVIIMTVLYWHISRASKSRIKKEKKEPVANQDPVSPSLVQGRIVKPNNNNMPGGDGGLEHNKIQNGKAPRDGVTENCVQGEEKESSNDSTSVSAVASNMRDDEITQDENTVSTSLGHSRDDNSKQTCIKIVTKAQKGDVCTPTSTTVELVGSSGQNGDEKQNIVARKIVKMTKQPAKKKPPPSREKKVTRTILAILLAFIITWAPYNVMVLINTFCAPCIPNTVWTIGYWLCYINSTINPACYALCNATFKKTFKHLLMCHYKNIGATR
Experimental: as §3, §4, §5

T1 sequence (P08483 whole entry): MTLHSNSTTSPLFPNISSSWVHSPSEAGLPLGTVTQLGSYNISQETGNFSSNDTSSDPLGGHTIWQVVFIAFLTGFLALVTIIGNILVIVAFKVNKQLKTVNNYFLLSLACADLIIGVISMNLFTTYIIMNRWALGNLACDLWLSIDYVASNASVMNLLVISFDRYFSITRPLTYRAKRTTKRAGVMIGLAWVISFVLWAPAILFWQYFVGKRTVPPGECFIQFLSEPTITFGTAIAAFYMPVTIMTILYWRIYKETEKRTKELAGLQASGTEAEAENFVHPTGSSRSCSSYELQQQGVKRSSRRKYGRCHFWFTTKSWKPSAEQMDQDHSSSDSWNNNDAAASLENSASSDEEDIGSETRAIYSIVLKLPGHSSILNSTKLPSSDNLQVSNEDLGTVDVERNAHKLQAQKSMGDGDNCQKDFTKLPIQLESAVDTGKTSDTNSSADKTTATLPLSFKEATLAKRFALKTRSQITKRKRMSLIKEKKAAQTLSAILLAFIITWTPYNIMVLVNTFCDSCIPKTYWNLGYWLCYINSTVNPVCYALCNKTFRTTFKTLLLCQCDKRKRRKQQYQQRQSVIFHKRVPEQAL

SMILES: CN1[C@@H]2CC[C@H]1C[C@@H](OC(=O)C(CO)c1ccccc1)C2 (stereo partly drawn) [E, atropine, reference compound]
- ED50 [1]: 0.0457 µmol/kg
- ED50 (vagal bradycardia (M2)): 0.0115 µmol/kg
- ED50 [2]: 0.0933 µmol/kg
- ED50 [3]: 0.02 µmol/kg

SMILES: CCN(CC)CC1CCCCN1CC(=O)N1c2ccccc2C(=O)Nc2cccnc21 (stereo not drawn) [C, 11-[[2-[(diethylamino)methyl]-1-piperidinyl]acetyl]-5,11-dihydro-6H-pyrido[2,3-b][1,4]benzodiazepin-6-one, reference compound]
- ED50 [4]: 10 µmol/kg
- ED50 (vagal bradycardia (M2)): 0.38 µmol/kg

SMILES: CN1CCCC1CCNCC(=O)N1c2ccccc2C(=O)Nc2cccnc21 (stereo not drawn) [A, 5,11-dihydro-11-[[[2-(1-methyl-2-pyrrolidinyl)ethyl]amino]acetyl]-6H-pyrido[2,3-b][1,4]benzodiazepin-6-one]
- ED50 [5]: 0.102 µmol/kg
- ED50 [2]: 0.537 µmol/kg
- ED50 [3]: 0.0977 µmol/kg

SMILES: CCN1CCCC1CN(C)CC(=O)N1c2ccccc2C(=O)Nc2cccnc21 (stereo not drawn) [B, 5,11-dihydro-11-[[[(1-ethyl-2-pyrrolidinyl)methyl]methylamino]acetyl]-6H-pyrido[2,3-b][1,4]benzodiazepin-6-one]
- IC50 [6]: 30 nM
- ED50 [5]: 0.0347 µmol/kg
- ED50 [4]: 0.813 µmol/kg
- ED50 [1]: 0.141 µmol/kg
- ED50 (vagal bradycardia (M2)): 0.00741 µmol/kg
- IC50 [7]: 50 nM
- IC50 [8]: 6 nM
- ED50 [2]: 1.17 µmol/kg
- ED50 [3]: 0.0457 µmol/kg
